Reference: patent US11844801B2, “Oral compositions of MK2 pathway inhibitor for treatment of immune conditions” (priority 2020, dated 2023)
Converted amounts (≈) assume the structure as drawn.

Tests used:
[1] = Phase 2a RA study: safety (adverse events)
Experimental: Patient eligibility was assessed based on the following criteria: (i) a diagnosis of adult onset RA (ACR/EULAR classification criteria); (ii) DAS28-CRP≥3.2 defined as moderate to high disease activity; (iii) moderately to severely active RA defined by at least 4/28 tender and 4/28 swollen joints; (iv) hsCRP≥5 mg/L at screening; (v) definitive intra-articular synovitis or osteitis defined as a score of 1 or greater on a Hand-Wrist MM (using RAMRIS); (vi) stable MTX dose (defined as 7.5 mg to 25 mg weekly) for at least 4 weeks prior to the screening visit. […] Study medications were administered orally for 12 weeks. Patients were required to remain on a stable dose of MTX (7.5 mg to 25 mg/week) and a stable dose of folic or folinic acid (≥5 mg/week) for the duration of the study.
Patients attended clinic visits on Days 7, 14, 28, 42, 56, and 84 (±1 day) for safety, efficacy, PK, and PD assessments. The morning dose of study medication was administered in the clinic on each study visit day.
At the completion of 4 weeks of treatment (Day 28), each patient's safety data (e.g., AEs, laboratory values, vital signs, and ECGs) will be reviewed to ensure that the patient is tolerating the treatment regimen and is deemed suitable to continue treatment for the next 8 weeks.

TNF-α [2] = experiment: R848 stimulated TNF-α production in human whole blood; assay type: cell-based; conditions: R848, 0.5 ug/mL, 5 hr
Experimental: (§1) Human whole blood assays were performed as described above with the exceptions listed below. […] Compounds were serially diluted in 100% DMSO (Sigma-Aldrich, D2650) followed by a 10× dilution into RPMI (Gibco, 11875). After the one-hour incubation with the compounds or vehicle, 2 μL of R848 (InvivoGen, tlrl-r848) in RPMI (Gibco, 11875) was added for a final concentration of 0.5 μg/mL to each well except for the no stimulus wells. After five hours of incubation with R848, plasma was harvested and assayed for TNF-α, IL-1β, IL-6 and IL-8 using Meso Scale Discovery Technology V-plex human cytokine kits according to the kit protocol.

IL-6 [3] = experiment: R848 stimulated IL-6 production in human whole blood; assay type: cell-based; conditions: R848, 0.5 ug/mL, 5 hr
Experimental: as §1

IL-6 [4] = experiment: IL-1β stimulated IL-6 production in human whole blood; assay type: cell-based
Experimental: Compounds were serially diluted in 100% DMSO (Sigma-Aldrich, D2650) followed by a 10× dilution into RPMI (Gibco, 11875). After the one-hour incubation with the compounds or vehicle, 2 μL of IL-1β (R&D, 201-LB-010) in RPMI (Gibco, 11875) was added for a final concentration of 0.5 μg/mL to each well except for the no stimulus wells. […]

IL-8 = experiment: IL-1β stimulated IL-8 production in human whole blood; assay type: cell-based
Experimental: Compounds were serially diluted in 100% DMSO (Sigma-Aldrich, D2650) followed by a 10× dilution into RPMI (Gibco, 11875). After the one-hour incubation with the compounds or vehicle, 2 μL of IL-1β (R&D, 201-LB-010) in RPMI (Gibco, 11875) was added for a final concentration of 0.5 μg/mL to each well except for the no stimulus wells. After six hours of incubation with IL-1β, plasma was harvested and assayed for TNF-α, IL-6 and IL-8 using Meso Scale Discovery Technology V-plex human cytokine kits according to the kit protocol.

TNF-α [5] = experiment: Differentiated U937 cell LPS stimulated cytokine assay (TNF-α); assay type: cell-based; conditions: Homo sapiens, U-937, U937 cells, 100 ng/mL, 4 hr
Experimental: U937 Cell differentiation and LPS stimulated cytokine assay: The U937 human pre-monocytic cell line (ATCC, CRL-1593.2) was grown in complete media: RPMI 1640 (Gibco, A10491) with penicillin-streptomycin (10 U/mL)-glutamine (2 mM) (Gibco, 10378016) and 10% FBS(Gibco, 26140-079). Cells were differentiated to a monocyte/macrophage phenotype with the addition of PMA (Sigma-Aldrich, P1585) (20 ng/mL, 24 hours), washed with DPBS (Gibco, 14190-136) and incubated in complete media for 24 hours at 37° C., 5% CO2. Following recovery, the cells were scraped, counted, re-plated in complete media in accordance with the experimental design and incubated for an additional 24 hours at 37° C., 5% CO2 prior to stimulation with LPS (Sigma-Aldrich, L2630) as described below. Differentiated U937 cells were pretreated for one hour in the presence of serially diluted compound or vehicle then stimulated with LPS at a final concentration of 100 ng/mL for four hours. Culture media was then collected for determination of cytokine levels using Meso Scale Technology.

IL-17A = IL-17A production in CD4+ cells cultured under TH17 skewing conditions; assay type: cell-based, human
Experimental: CD4+ cells were cultured for 3 days under TH17 skewing conditions (anti-CD3, anti-CD28, anti-IL-4, anti-IFNγ, rIL-6, rIL-23, rTGFβ). On day 3, cells were harvested, washed, re-plated, and treated with compound or DMSO only. […] After 18-20 hours, supernatants were collected and assayed for IL-17A levels using MSD.

[6] = cited from earlier work

Cc1cnc(-c2ccnc(C(C)(C)O)n2)cc1-n1c(C)cc(OCc2ncc(F)cc2F)c(Cl)c1=O (single isomer, unassigned) [ATI-450, 3-chloro-4-((3,5-difluoropyridin-2-yl)methoxy)-2′-(2-(2-hydroxypropan-2-yl)pyrimidin-4-yl)-5′,6-dimethyl-2H-[1,4′-bipyridin]-2-one]
tolerability ([1]; 50 mg BID plus MTX, 12 weeks): very well tolerated, with no serious or severe adverse events reported | Abnormal ECG, Mild, n (%) ([1]; 50 mg BID, RA patients, n = 16): 1 (6.25) | Abnormal ECG, Moderate, n (%) ([1]; 50 mg BID, RA patients, n = 16): 0 | Blood cholesterol increased, Mild, n (%) ([1]; 50 mg BID, RA patients, n = 16): 1 (6.25) | Blood cholesterol increased, Moderate, n (%) ([1]; 50 mg BID, RA patients, n = 16): 0 | Blood creatine phosphokinase increased, Mild, n (%) ([1]; 50 mg BID, RA patients, n = 16): 0 | Blood creatine phosphokinase increased, Moderate, n (%) ([1]; 50 mg BID, RA patients, n = 16): 1 (6.25) | Constipation, Mild, n (%) ([1]; 50 mg BID, RA patients, n = 16): 1 (6.25) | Constipation, Moderate, n (%) ([1]; 50 mg BID, RA patients, n = 16): 0 | Ear infection, Mild, n (%) ([1]; 50 mg BID, RA patients, n = 16): 1 (6.25) | Ear infection, Moderate, n (%) ([1]; 50 mg BID, RA patients, n = 16): 0 | Essential hypertension, Mild, n (%) ([1]; 50 mg BID, RA patients, n = 16): 0 | Essential hypertension, Moderate, n (%) ([1]; 50 mg BID, RA patients, n = 16): 1 (6.25) | Hyperliidaemia, Mild, n (%) ([1]; 50 mg BID, RA patients, n = 16): 0 | Hyperliidaemia, Moderate, n (%) ([1]; 50 mg BID, RA patients, n = 16): 1 (6.25) | Hypokalaemia, Mild, n (%) ([1]; 50 mg BID, RA patients, n = 16): 0 | Hypokalaemia, Moderate, n (%) ([1]; 50 mg BID, RA patients, n = 16): 1 (6.25) | Ligament sprain, Mild, n (%) ([1]; 50 mg BID, RA patients, n = 16): 1 (6.25) | Ligament sprain, Moderate, n (%) ([1]; 50 mg BID, RA patients, n = 16): 0 | Low density lipoprotein increased, Mild, n (%) ([1]; 50 mg BID, RA patients, n = 16): 1 (6.25) | Low density lipoprotein increased, Moderate, n (%) ([1]; 50 mg BID, RA patients, n = 16): 0 | Mouth ulceration, Mild, n (%) ([1]; 50 mg BID, RA patients, n = 16): 1 (6.25) | Mouth ulceration, Moderate, n (%) ([1]; 50 mg BID, RA patients, n = 16): 0 | Palpitations, Mild, n (%) ([1]; 50 mg BID, RA patients, n = 16): 1 (6.25) | Palpitations, Moderate, n (%) ([1]; 50 mg BID, RA patients, n = 16): 0 | Rash erythematous, Mild, n (%) ([1]; 50 mg BID, RA patients, n = 16): 1 (6.25) | Rash erythematous, Moderate, n (%) ([1]; 50 mg BID, RA patients, n = 16): 0 | Sinusitis, Mild, n (%) ([1]; 50 mg BID, RA patients, n = 16): 0 | Sinusitis, Moderate, n (%) ([1]; 50 mg BID, RA patients, n = 16): 1 (6.25) | Skin abrasion, Mild, n (%) ([1]; 50 mg BID, RA patients, n = 16): 1 (6.25) | Skin abrasion, Moderate, n (%) ([1]; 50 mg BID, RA patients, n = 16): 0 | Urinary tract infection, Mild, n (%) ([1]; 50 mg BID, RA patients, n = 16): 0 | Urinary tract infection, Moderate, n (%) ([1]; 50 mg BID, RA patients, n = 16): 2 (12.5) | Ventricular extrasystoles, Mild, n (%) ([1]; 50 mg BID, RA patients, n = 16): 1 (6.25) | Ventricular extrasystoles, Moderate, n (%) ([1]; 50 mg BID, RA patients, n = 16): 0 | White blood cell count increased, Mild, n (%) ([1]; 50 mg BID, RA patients, n = 16): 1 (6.25) | White blood cell count increased, Moderate, n (%) ([1]; 50 mg BID, RA patients, n = 16): 0 | IC50 (TNF-α [2]): 34.8 ± 5 nM | IC50 (IL-6 [3]): 79.2 ± 17.2 nM | IC50 (IL-6 [4]; Human Whole Blood, IL-1β, 10 ng/mL, 5 hr): 11.1 ± 3.8 nM | IC80 (IL-6 [4]; human whole blood): 0.041 ± 0.02 µg/mL (≈ 0.0798 µM) | IC80 (IL-8): 0.04 ± 0.012 µg/mL (≈ 0.0778 µM) | IC50 (TNF-α [5]): 1.55 ± 0.35 nM | IL-17 production in CD4+ cells (IL-17A): partially inhibits | bone marrow IL-1β in murine NOMID model ([6]; relative to placebo): reduction in bone marrow levels of IL-1β | effect on disease in murine NOMID model ([6]; transgenic animal model): dramatic attenuation of disease
